Test results reported in patent US10681909B2, “Herbicidal triazoles” (FMC Corporation, priority 2014, dated 2020).

Experiments:
foxtail, green = assay: Test D preemergence; type: in vivo, Setaria viridis; details: for Plant response rating (0 to 100), Foxtail, Green: 16 g ai/ha, 0 is no effect, 100 is complete control; for Plant response rating: Foxtail, Green: scale 0 to 100
Text: (§1) Seeds of plant species selected from bluegrass (annual bluegrass, Poa annua), blackgrass (Alopecurus myosuroides), canarygrass (Phalaris minor), chickweed (common chickweed, Stellaria media), galium (catchweed bedstraw, Galium aparine), bromegrass, down (downy bromegrass, Bromus tectorum), Russian thistle (Salsola kali), field poppy (Papaver rhoeas), field violet (Viola arvensis), foxtail, green (green foxtail, Setaria viridis), deadnettle (henbit deadnettle, Lamium amplexicaule), ryegrass, Ital. (Italian ryegrass, Lolium multiflorum), kochia (Kochia scoparia), lambsquarters (Chenopodium album), oilseed rape (Brassica napus), pigweed (Amaranthus retroflexus), chamomile (scentless chamomile, Matricaria inodora), speedwell (bird's-eye speedwell, Veronica persica), barley, spring (spring barley, Hordeum vulgare), wheat, spring (spring wheat, Triticum aestivum), buckwheat, wild (wild buckwheat, Polygonum convolvulus), wild mustard (Sinapis arvensis), oat, wild (wild oat, Avena fatua), radish, wild (wild radish, Raphanus raphanistrum), […]), barley, winter (winter barley, Hordeum vulgare), and wheat, winter (winter wheat, Triticum aestivum) were planted into a silt loam soil and treated preemergence with test chemicals formulated in a non-phytotoxic solvent mixture which included a surfactant. At the same time, these species were planted in pots containing Sunshine Redi-Earth® planting medium comprising spaghnum peat moss, vermiculite, starter nutrients and dolomitic limestone and treated with postemergence applications of the test chemicals formulated in the same manner. Plants ranged in height from 2 to 18 cm (1- to 4-leaf stage). Treated plants and controls were maintained in a controlled growth environment for 14 to 21 d after which time all species were compared to controls and visually evaluated. […] A dash (-) response means no test result.

field poppy = assay: Test D postemergence; type: in vivo, Papaver rhoeas; details: scale 0 to 100
Text: as §1

kochia = assay: Test D postemergence; type: in vivo, Kochia scoparia; details: scale 0 to 100
Text: as §1

oilseed rape = assay: Test D postemergence; type: in vivo, Brassica napus; details: scale 0 to 100
Text: as §1

crabgrass, large = assay: Test C preemergence; type: in vivo, Digitaria sanguinalis; details: for Plant response rating (scale of 0 to 100 where 0 is no effect and 100 is complete control): Crabgrass, Large, preemergence; for Crabgrass, Large plant response rating (0 to 100): Preemergence, visual rating after 13 to 15 d
Text: (§2) Seeds of plant species selected from blackgrass (Alopecurus myosuroides), ryegrass, Italian (Italian ryegrass, Lolium multiflorum), wheat (winter wheat, Triticum aestivum), galium (catchweed bedstraw, Galium aparine), corn (Zea mays), crabgrass, large (large crabgrass, Digitaria sanguinalis), foxtail, giant, (giant foxtail, Setaria faberii), johnsongrass (Sorghum halepense), lambsquarters (Chenopodium album), morningglory (Ipomoea coccinea), nutsedge, yellow (yellow nutsedge, Cyperus esculentus), pigweed (Amaranthus retroflexus), ragweed (common ragweed, Ambrosia elatior), soybean (Glycine max), barnyardgrass (Echinochloa crus-galli), oilseed rape (Brassica napus), waterhemp (common waterhemp, Amaranthus rudis), and velvetleaf (Abutilon theophrasti) were planted into a blend of loam soil and sand and treated preemergence with test chemicals formulated in a non-phytotoxic solvent mixture which included a surfactant. At the same time, plants selected from these crop and weed species and also chickweed (common chickweed, Stellaria media), oat, wild (wild oat, Avena fatua), and kochia (Kochia scoparia), were planted in pots containing Sunshine Redi-Earth® planting medium comprising spaghnum peat moss, vermiculite, starter nutrients and dolomitic limestone and treated with postemergence applications of test chemicals formulated in the same manner. Plants ranged in height from 2 to 18 cm (1- to 4-leaf stage) for postemergence treatments. […] A dash (-) response means no test result.

lambsquarters = assay: Test C preemergence; type: in vivo, Chenopodium album; details: for Plant response rating (scale of 0 to 100 where 0 is no effect and 100 is complete control): Lambsquarters, preemergence; for Lambsquarters plant response rating (0 to 100): Preemergence, visual rating after 13 to 15 d
Text: as §2

morningglory = assay: Test C preemergence; type: in vivo, Ipomoea coccinea; details: for Plant response rating (scale of 0 to 100 where 0 is no effect and 100 is complete control): Morningglory, preemergence; for Morningglory plant response rating (0 to 100): Preemergence, visual rating after 13 to 15 d
Text: as §2

barnyardgrass = assay: Test C preemergence; type: in vivo, Echinochloa crus-galli; details: for Plant response rating (scale of 0 to 100 where 0 is no effect and 100 is complete control): Barnyardgrass, preemergence; for Barnyardgrass plant response rating (0 to 100): Preemergence, visual rating after 13 to 15 d
Text: as §2

velvetleaf = assay: Test C preemergence; type: in vivo, Abutilon theophrasti; details: for Velvetleaf plant response rating (0 to 100): Preemergence, visual rating after 13 to 15 d
Text: as §2

| SMILES | Plant response rating (0 to 100), Foxtail, Green (foxtail, green) | Plant response rating: Foxtail, Green (foxtail, green; 62 g ai/ha) | Plant response rating: Foxtail, Green (foxtail, green; 125 g ai/ha) | Plant response rating: Field Poppy (field poppy; 16 g ai/ha) | Plant response rating: Field Poppy (field poppy; 31 g ai/ha) | Plant response rating: Field Poppy (field poppy; 62 g ai/ha) | Plant response rating: Field Poppy (field poppy; 125 g ai/ha) | Plant response rating: Kochia (kochia; 16 g ai/ha) | Plant response rating: Kochia (kochia; 31 g ai/ha) | Plant response rating: Kochia (kochia; 62 g ai/ha) | Plant response rating: Kochia (kochia; 125 g ai/ha) | Plant response rating: Oilseed Rape (oilseed rape; 16 g ai/ha) | Plant response rating: Oilseed Rape (oilseed rape; 31 g ai/ha) | Plant response rating: Oilseed Rape (oilseed rape; 62 g ai/ha) | Plant response rating: Oilseed Rape (oilseed rape; 125 g ai/ha) | also measured |
| --- | --- | --- | --- | --- | --- | --- | --- | --- | --- | --- | --- | --- | --- | --- | --- | --- |
| COc1nc(-c2ccc(Cl)cc2)nn1Cc1ccnc(C(F)(F)F)c1 [Compound 28] | 80 | 85 | 100 | 65 | 65 | 65 | 70 | 85 | 85 | 85 | 95 | 65 | 75 | 75 | 85 | – |
| Fc1ccc(-c2nc(OCC(F)(F)F)n(Cc3ccnc(C(F)(F)F)c3)n2)cc1 [Compound 30] | 85 | 100 | 100 | 70 | 90 | 98 | 100 | 85 | 90 | 90 | 95 | 90 | 75 | 100 | 100 | Plant response rating (scale of 0 to 100 where 0 is no effect and 100 is complete control) (crabgrass, large; 125 g ai/ha): 100; Plant response rating (scale of 0 to 100 where 0 is no effect and 100 is complete control) (crabgrass, large; 250 g ai/ha): 100; Crabgrass, Large plant response rating (0 to 100) (crabgrass, large; 31 g ai/ha): 98; Crabgrass, Large plant response rating (0 to 100) (crabgrass, large; 62 g ai/ha): 100; Plant response rating (scale of 0 to 100 where 0 is no effect and 100 is complete control) (lambsquarters; 125 g ai/ha): 95; Plant response rating (scale of 0 to 100 where 0 is no effect and 100 is complete control) (lambsquarters; 250 g ai/ha): 98; Lambsquarters plant response rating (0 to 100) (lambsquarters; 31 g ai/ha): 98; Lambsquarters plant response rating (0 to 100) (lambsquarters; 62 g ai/ha): 98; Plant response rating (scale of 0 to 100 where 0 is no effect and 100 is complete control) (morningglory; 125 g ai/ha): 60; Plant response rating (scale of 0 to 100 where 0 is no effect and 100 is complete control) (morningglory; 250 g ai/ha): 90; Morningglory plant response rating (0 to 100) (morningglory; 31 g ai/ha): 35; Morningglory plant response rating (0 to 100) (morningglory; 62 g ai/ha): 35; Plant response rating (scale of 0 to 100 where 0 is no effect and 100 is complete control) (barnyardgrass; 125 g ai/ha): 85; Plant response rating (scale of 0 to 100 where 0 is no effect and 100 is complete control) (barnyardgrass; 250 g ai/ha): 98; Barnyardgrass plant response rating (0 to 100) (barnyardgrass; 31 g ai/ha): 40; Barnyardgrass plant response rating (0 to 100) (barnyardgrass; 62 g ai/ha): 85; Velvetleaf plant response rating (0 to 100) (velvetleaf; 31 g ai/ha): 20; Velvetleaf plant response rating (0 to 100) (velvetleaf; 62 g ai/ha): 70; Plant response rating (scale of 0 to 100 where 0 is no effect and 100 is complete control) (velvetleaf; Velvetleaf, preemergence, 250 g ai/ha): 85 |
